Laboratory results as given in ChEMBL document CHEMBL5260817, “Polyamine-based analogs and conjugates as antikinetoplastid agents” (Eur J Med Chem, 2017).
In brackets after ≈: the same amount, converted by molar mass.

Columns and labels:
Leishmania donovani [1] = assay: Antiprotozoal activity against Leishmania donovani MHOM/IN/00/DEV strain promastigotes assessed as growth inhibition measured after 72 hrs by MTT assay; format: functional, organism-based
HepG2 = assay: Anticancer activity against human HepG2 cells assessed as cell growth inhibition measured after 72 hrs by MTT assay; format: functional, cell-based; settings: HepG2, 72 h
Trypanosoma brucei [2] = assay: Antiprotozoal activity against Trypanosoma brucei infected in HepG2 cells; format: functional, organism-based
[3] = Inhibition of TryR (unknown origin) assessed as inhibition constant by FRET assay
[4] = Inhibition of TryR (unknown origin) assessed as inhibition constant; set-up: species or system Bacteria
Leishmania donovani [5] = assay: Antiprotozoal activity against Leishmania donovani MHOM/PE/84/LC26 amastigotes infected in mouse J774.2 cells measured after 72 hrs; format: functional, organism-based; settings: J774.2, 72 h
Leishmania infantum [6] = assay: Antiprotozoal activity against Leishmania infantum MCAN/ES/2001/UCM-10 amastigotes infected in mouse J774.2 cells measured after 72 hrs; format: functional, organism-based; settings: J774.2, 72 h
Trypanosoma brucei [7] = assay: Antitrypanosomal activity against bloodstream Trypanosoma brucei assessed as parasite growth inhibition; format: functional, organism-based
Trypanosoma brucei [8] = assay: Antiprotozoal activity against Trypanosoma brucei; format: functional, organism-based
Leishmania donovani [9] = assay: Antiprotozoal activity against Leishmania donovani infected in mouse macrophage cell measured after 72 hrs; format: functional, organism-based
KB = assay: Anticancer activity against human KB cells assessed as cell growth inhibition; format: functional, cell-based
Leishmania mexicana = assay: Antiprotozoal activity against Leishmania mexicana infected in mouse J774 cells; format: functional, organism-based
Trypanosoma cruzi [10] = assay: Antiprotozoal activity against Trypanosoma cruzi infected in Rhesus monkey LLC-MK2 cells; format: functional, organism-based
Trypanosoma cruzi [11] = assay: Antiprotozoal activity against Trypanosoma cruzi infected in human Red blood cell; format: functional, organism-based; settings: Erythrocyte
Leishmania donovani [12] = assay: Antiprotozoal activity against Leishmania donovani LV9 strain amastigotes; format: functional, organism-based
Leishmania braziliensis = assay: Antiprotozoal activity against Leishmania braziliensis 2903 strain […] assessed as […] at 10 ug/ml relative to control; format: functional; settings: dose 10 µg/ml
Leishmania donovani [13] = assay: Antiprotozoal activity against Leishmania donovani PP75 strain […] assessed as […] at 10 ug/ml relative to control; format: functional; settings: dose 10 µg/ml
Leishmania amazonensis = assay: Antiprotozoal activity against Leishmania amazonensis PH8 strain […] assessed as […] at 10 ug/ml relative to control; format: functional; settings: dose 10 µg/ml
Trypanosoma cruzi [14] = assay: Antiprotozoal activity against Trypanosoma cruzi MHOM/BR/OO/Y strain infected in mouse macrophage cell measured after 3 days; format: functional, organism-based; settings: 72 h
Leishmania donovani [15] = assay: Antiprotozoal activity against Leishmania donovani MHOM/ET/67/L82 strain infected in mouse macrophage cell measured after 5 days; format: functional, organism-based; settings: MHOM/ET/67/L82, Macrophage, 120 h
Trypanosoma cruzi [16] = assay: Antiprotozoal activity against Trypanosoma cruzi […] strain infected in mouse macrophage cell measured after 3 days; format: functional, organism-based; settings: 72 h
Trypanosoma cruzi [17] = assay: Antiprotozoal activity against Trypanosoma cruzi […]; format: functional, organism-based
[18] = system: Trypanosoma brucei rhodesiense; assay: Antiprotozoal activity against Trypanosoma brucei rhodesiense; format: functional, organism-based
Trypanothione reductase = Trypanothione reductase (Trypanosoma cruzi, UniProt P28593); assay: Inhibition of Trypanosoma cruzi TryR assessed as inhibition constant
Trypanosoma cruzi [19] = assay: Antiprotozoal activity against Trypanosoma cruzi epimastigote at 10 uM relative to control; format: functional
Trypanosoma cruzi [20] = assay: Antiprotozoal activity against Trypanosoma cruzi infected in mouse assessed as survival rate at 10 mg/kg, po administered 3 times daily on day 6 and 7 then twice daily from day 8 to 12; format: functional; settings: time 7 day
Leishmania infantum [21] = assay: Antiprotozoal activity against Leishmania infantum MHOM/MA671TMAP263 axenic amastigotes assessed as growth inhibition measured after 5 day by MTT assay; format: functional, organism-based; settings: 120 h
Leishmania infantum [22] = assay: Antiprotozoal activity against Leishmania infantum MHOM/MA671TMAP263 promastigote assessed as growth inhibition measured after 5 day by MTT assay; format: functional, organism-based; settings: MHOM/MA671TMAP263, 120 h
[23] = Inhibition of Trypanosoma brucei recombinant N-terminal His-tag TryS in presence of ATP
[24] = Inhibition of Leishmania infantum recombinant N-terminal His-tag TryS in presence of ATP
[25] = Inhibition of Trypanosoma cruzi recombinant N-terminal His-tag TryS in presence of ATP
[26] = Inhibition of Trypanosoma brucei MetRS
[27] = Inhibition of Trypanosoma MetRS
Leishmania donovani [28] = assay: Leishmanicidal activity against Leishmania donovani; format: functional, organism-based
Leishmania donovani [29] = assay: Antiprotozoal activity against Leishmania donovani infected in mouse macrophage cell; format: functional, organism-based
Trypanosoma cruzi [30] = assay: Antiprotozoal activity against Trypanosoma cruzi JEM strain epimastigotes; format: functional, organism-based
Trypanosoma cruzi [31] = assay: Antiprotozoal activity against Trypanosoma cruzi MG strain epimastigotes; format: functional, organism-based
Trypanosoma cruzi [32] = assay: Antiprotozoal activity against Trypanosoma cruzi CL-B5 strain epimastigotes; format: functional, organism-based
Trypanosoma cruzi [33] = assay: Antiprotozoal activity against Trypanosoma cruzi CL-B5 strain amastigotes; format: functional, organism-based
[34] = Anticancer activity against rat Myoblast cells assessed as cell growth inhibition; format: functional, cell-based
[35] = system: Trypanosoma brucei rhodesiense; assay: Antiprotozoal activity against Trypanosoma brucei rhodesiense STIB900 strain assessed as trypanocidal activity; format: functional, organism-based
Trypanosoma cruzi [36] = assay: Antiprotozoal activity against Trypanosoma cruzi measured after 24 hrs; format: functional, organism-based

Chain of Trypanothione reductase (P28593 whole entry): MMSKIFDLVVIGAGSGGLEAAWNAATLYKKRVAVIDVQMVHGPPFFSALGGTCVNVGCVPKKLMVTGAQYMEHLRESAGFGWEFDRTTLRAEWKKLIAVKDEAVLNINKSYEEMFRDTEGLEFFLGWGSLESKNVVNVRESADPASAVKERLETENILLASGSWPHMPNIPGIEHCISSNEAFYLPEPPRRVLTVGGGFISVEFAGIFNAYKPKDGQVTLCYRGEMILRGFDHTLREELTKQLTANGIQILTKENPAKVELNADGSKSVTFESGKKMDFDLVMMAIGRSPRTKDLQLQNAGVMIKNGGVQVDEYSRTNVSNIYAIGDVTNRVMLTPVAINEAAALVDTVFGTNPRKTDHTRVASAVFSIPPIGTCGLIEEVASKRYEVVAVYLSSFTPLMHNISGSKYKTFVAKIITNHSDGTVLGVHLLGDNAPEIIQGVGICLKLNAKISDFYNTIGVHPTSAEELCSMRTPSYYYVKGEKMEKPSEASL

c1ccc2c(c1)cc1c(-c3ccc(CNCCCN4CCN(CCCNCc5ccc(-c6nc7ccccc7n7c6cc6ccccc67)cc5)CC4)cc3)nc3ccccc3n12
IC50 (Leishmania donovani [1]): 0.57 µM | IC50 (HepG2): 1.56 µM

COc1ccc(CNCCNCc2ccc(OC)cc2)cc1
IC50 (Trypanosoma brucei [2]): ≤ 10 µM

O=C(NCCCNCCCCNCCCNC(=O)c1cnc2cc(C(F)(F)F)ccc2c1O)c1cnc2cc(C(F)(F)F)ccc2c1O
Ki [3]: 0.75 µM | Ki [4]: 0.75 µM

CN1CCCNc2c(c(=O)c2=O)NCCCN(C)CCCNc2c(c(=O)c2=O)NCCC1
IC50 (Leishmania donovani [5]): 20 µM | IC50 (Leishmania infantum [6]): 20 µM

Nc1nc(N)nc(NCCCNCCCCCCCNCCCNCCCNc2nc(N)nc(N)n2)n1
IC50 (Trypanosoma brucei [7]): 24 µM

O=C(O)CCCCCN1CSC(=S)N(CCCCCCN2CN(CCCCCC(=O)O)CSC2=S)C1
IC50 (Trypanosoma brucei [8]): 0.36 µM | IC50 (Leishmania donovani [9]): 6.74 µM | IC50 (KB): 16.1 µM

CC(C)=CCC/C(C)=C/CNCCNC1C2CC3CC(C2)CC1C3 (centres undefined) [SQ109]
IC50 (Leishmania mexicana): 0.01 µM | IC50 (Trypanosoma cruzi [10]): 0.5 µM | IC50 (Trypanosoma cruzi [11]): 80 µM

CCN(CC)CCCCCCNc1cc(OC)cc2c(C)ccnc12 [SITAMAQUINE]
IC50 (Leishmania donovani [12]): 4 µM | Activity (Leishmania braziliensis): 80% | Activity (Leishmania donovani [13]): 80% | Activity (Leishmania amazonensis): 80%

CC1=C(CCCCCC(=O)NCCCCNCCCNC(=O)CCCCCC2=C(C)C(=O)c3ccccc3C2=O)C(=O)c2ccccc2C1=O
IC50 (Trypanosoma cruzi [14]): < 5 µM | IC50 (Leishmania donovani [15]): < 5 µM | IC50 (Trypanosoma cruzi [16]): < 5 µM

CCCCN(CCCC)CCCN
IC50 (Trypanosoma cruzi [17]): 4.66 µM

CN1CCN(CCCNc2cc(Cl)ccc2Sc2ccccc2)CC1
IC50 [18]: 0.98 µM | Ki (Trypanothione reductase): 27 µM | inhibition at 10 µM (Trypanosoma cruzi [19]): 85%

CN(C)CCCN1CCN(C(=O)Cc2ccccc2)CC1
Activity (Trypanosoma cruzi [20]): 90%

O=C1c2cccc3cccc(c23)C(=O)N1CCCNCCCNCCCCNCCCNCCCN1C(=O)c2cccc3cccc(c23)C1=O
IC50 (Leishmania infantum [21]): 12.3 µM | IC50 (Leishmania infantum [22]): 7.56 µM

CC(C)c1ccc(CNCCCCCCCCCCNCc2ccc(C(C)C)cc2)cc1
IC50 [23]: 30 µM | IC50 [24]: 30 µM | IC50 [25]: 30 µM

Fc1ccc2[nH]c(NCCCN[C@@H]3CCNc4c(Cl)cc(Cl)cc43)nc2n1
IC50 (Trypanosoma brucei [8]): 0.0004 µM | IC50 [26]: 0.002 µM | Ki [26]: 0.002 µM | Ki [27]: 0.002 µM

CCCCCCCCCCCCCCCCNc1c(NCC[N+](C)(C)C)c(=O)c1=O
IC50 (Leishmania donovani [28]): > 12 µM | IC50 (Leishmania donovani [29]): > 12 µM

CCCCCCCCCCCCCCC(CN)NC(=O)OC(C)(C)C (centres undefined)
IC50 (Trypanosoma cruzi [30]): 10 µM | IC50 (Trypanosoma cruzi [31]): 10 µM | IC50 (Trypanosoma cruzi [32]): 2 µM | IC50 (Trypanosoma cruzi [33]): 2 µM

CN(C)CCCNc1cc(Cl)ccc1Sc1ccc(C(F)(F)F)cc1
IC50 [34]: 9.8 µM | IC50 [35]: 1.2 µM

CCCCCCCCCCC(O)CNCCN (centres undefined)
IC50 (Trypanosoma cruzi [36]): 31.2 µg/mL (≈ 128 µM)
